From patent US7041785B1, “B1-bradykinin receptor antagonists and use thereof” (Université de Sherbrooke, priority 1996, dated 2006) come the findings set out here.

For one data set, the target named is T1, human B1 receptor (Homo sapiens, UniProt P46663).
T1 sequence (P46663 1-353): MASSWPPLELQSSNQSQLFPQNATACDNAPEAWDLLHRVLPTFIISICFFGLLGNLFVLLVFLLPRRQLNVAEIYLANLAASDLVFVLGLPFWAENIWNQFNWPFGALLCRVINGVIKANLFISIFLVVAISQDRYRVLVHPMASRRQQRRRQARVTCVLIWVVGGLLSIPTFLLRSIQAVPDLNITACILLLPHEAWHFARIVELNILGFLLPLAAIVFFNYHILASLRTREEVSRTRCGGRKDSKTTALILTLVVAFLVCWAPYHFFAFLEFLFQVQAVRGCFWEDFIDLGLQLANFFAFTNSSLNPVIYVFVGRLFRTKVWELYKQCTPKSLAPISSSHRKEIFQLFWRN
Description: cell-based. The conditions noted are these: Human umbilical vein B1 receptor pA2, vs desArg9BK, HOE140 400 nmol/L present. An excerpt: (§1) Tissues were taken from New Zealand white rabbits (1.5–2.5 kg) and Dunken Hartley guinea pigs (250–350 g) of either sex, killed by stunning and exsanguination. Umbilical cords were taken from healthy women 22–40 years old after spontaneous delivery at term. The rabbit jugular vein (RbJV), the guinea pig ileum (GPI), two preparations containing B2 receptors, the rabbit aorta (RbA) (B1 receptor) and the human umbilical vein (HUV), a mixed preparation containing both B1 and B2 receptors^10, were used. Helical strips of RbJV treated with 1 μmol/L of captopril to avoid peptide degradation by the angiotensin-converting enzyme (ACE), alias kininase II were prepared according to Gaudreau et al.^11 Helical strips of RbA devoid of endothelium were prepared according to Furchgott and Bhadrakom^12. Longitudinal segments of GPI were prepared with the procedure described by Rang^13. Helical strips of HUV were prepared according to Gobeil et al.^10. The tissues were suspended in 10-ml organ baths containing warm (37EC), oxygenated (95% O2–5% CO2) Krebs solution of the following composition in mmol/L; NaCl: 118.1; KCl: 4.7; CaCl26H2O: 2.5; KH2PO4: 1.2; MgSO47H2O: 1.18; NaHCO3: 25.0 and D-Glucose: 5.5. The RbA and the HUV were stretched with an initial tension of 2 g, whereas the RbJV and the GPI were loaded with 0.5 g. Changes of tension produced by the various agents were measured with Grass isometric transducers (model FT 03C, Grass Instrument Co., Quincy, Mass.). […] Before testing the drugs, the tissues were allowed to equilibrate for 60–120 min during which time the tissues were repeatedly washed and the tension readjusted every 15 min.
(§2) At the beginning of each experiment, a submaximal dose of bradykinin (BK) (9 nmol/L), was applied repeatedly on the RbJV, the GPI or the HUV to ensure that tissues responded with stable contractions. […] A similar protocol was used for the HUV.
(§3) Repeated applications of a singl and double concentration of BK (on RbJV, GPI and HUV) and of desArg^9BK (RbA and HUV) were made in the absence and in presence of the various peptides to evaluate their apparent affinities as antagonists, in terms of pA2 (-log10 of the molar concentration of antagonist that reduces the effect of a double concentration of agonist to that of a single one)^14. The antagonists were applied 10 min before measuring the myotropic effects of either BK (the B2 receptor agonist) or desArg^9BK (the B1 receptor agonist). […] All kinin antagonists were initially applied to tissues at concentration of 10 μg/mL to measure their potential agonistic activities (α^E) in comparison with BK (in the B2 receptor preparations) or desArg^9BK (in the B1 receptor preparations).

Data set [1] concerns T2, angiotensin-converting enzyme (ACE).
T2 construct: purified angiotensin-converting enzyme (ACE) from rabbit lungs; purchased Sigma, St-Louis, Mo; host or cells: purified from rabbit lungs
The experiment in a line: Metabolic degradation by purified angiotensin-converting enzyme, HPLC analysis. It is filed as in vitro ADME, rabbit. The conditions noted are these: rabbit, isolated enzyme ace, pH 7.5. The method, then: The metabolic stability of various kinin-related peptides was evaluated by incubating the peptide in the presence of purified angiotensin-converting enzyme (ACE) from rabbit lungs (purchased from Sigma, St-Louis, Mo.) dissolved in phosphate buffered saline (PBS) (50 mmol/L, pH 7.5 containing 300 mmoL/L NaCl); the final concentration of enzyme was 45 μg/mL. The experimental protocol for the measurement of ACE activity has been described elsewhere^15,16. Briefly, 200 μmol/L of peptides (40 μL) were placed in a PBS buffer and incubated for 5 min at 37EC before adding 8.5 μL of ACE (total volume of the reaction medium; 190 μL). Samples were withdrawn at 30 min intervals, immersed in boiling water for 5 min, then cooled on ice and centrifuged (5 min) before proceeding to analysis of peptides by high pressure liquid chromatography (HPLC). Results of ACE metabolism are expressed in percent of kinin degradation following the incubation (30 min) of kinin substrates with the enzyme.
Pure peptides and metabolic products were analysed by reverse-phas HPLC on a C18 μBondapak column (4.6 mm×25 cm) (Waters) of 10-μm particle size. The peptides and their fragments were eluted at the rate of 2.0 mL/min. with a linear gradient ranging from 5 to 65% of acetonitrile/TFA 0.05%/water over 20 min. at room temperature. The elution positions of these peptides were determined by following the absorbance at 214 nm. For each assay, 50 μL of the reaction medium (treated or not with ACE) were extracted and injected into the column. Concentrations of the peaks products, different from the peaks of the peptide substrate, were estimated using a computer software program (Baseline 810; Waters) that controlled also all the chromatography operations. Isolated metabolites and substrates were collected and identified by Electrospray mass spectrometry (positive mode).

Data set [2] addresses T3, B2 receptor (Cavia porcellus, UniProt O70526).
T3 sequence (O70526 1-372): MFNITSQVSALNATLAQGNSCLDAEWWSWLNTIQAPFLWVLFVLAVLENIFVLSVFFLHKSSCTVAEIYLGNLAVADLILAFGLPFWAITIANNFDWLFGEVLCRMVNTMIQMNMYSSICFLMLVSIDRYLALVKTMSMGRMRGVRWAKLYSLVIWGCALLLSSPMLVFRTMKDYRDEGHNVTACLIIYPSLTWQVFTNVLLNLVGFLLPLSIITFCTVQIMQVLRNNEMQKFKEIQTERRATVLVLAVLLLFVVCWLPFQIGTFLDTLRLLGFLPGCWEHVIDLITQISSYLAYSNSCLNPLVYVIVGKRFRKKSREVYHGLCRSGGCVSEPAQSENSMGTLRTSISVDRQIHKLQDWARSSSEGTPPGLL
Description: cell-based. The conditions noted are these: for G.P.I. pA2: vs BK, Inactive = no detectable antagonistic effect at ≦ 10 μg/ml, F.ag. full agonist, P.ag. partial agonist.
Source text: as §1, §2, §3

Data set [3] has as its target T4, B2 receptor (Oryctolagus cuniculus, UniProt Q28642).
T4 sequence (Q28642 1-367): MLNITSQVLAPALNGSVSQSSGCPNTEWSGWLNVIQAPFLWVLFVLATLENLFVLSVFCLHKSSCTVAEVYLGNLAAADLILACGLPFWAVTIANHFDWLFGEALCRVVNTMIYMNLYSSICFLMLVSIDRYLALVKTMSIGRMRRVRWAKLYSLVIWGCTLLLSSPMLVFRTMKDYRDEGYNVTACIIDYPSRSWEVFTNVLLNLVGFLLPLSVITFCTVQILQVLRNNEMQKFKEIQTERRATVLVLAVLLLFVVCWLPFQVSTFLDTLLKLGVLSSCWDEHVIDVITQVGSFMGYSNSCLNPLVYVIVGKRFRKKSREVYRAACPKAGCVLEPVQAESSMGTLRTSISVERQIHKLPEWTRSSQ
The conditions noted are these: vs BK; captopril 1 μmol/L; Inactive = no detectable antagonistic effect at ≦ 10 μg/ml.

For another data set, the target named is T5, B1 receptor (Oryctolagus cuniculus, UniProt P48748).
T5 sequence (P48748 1-352): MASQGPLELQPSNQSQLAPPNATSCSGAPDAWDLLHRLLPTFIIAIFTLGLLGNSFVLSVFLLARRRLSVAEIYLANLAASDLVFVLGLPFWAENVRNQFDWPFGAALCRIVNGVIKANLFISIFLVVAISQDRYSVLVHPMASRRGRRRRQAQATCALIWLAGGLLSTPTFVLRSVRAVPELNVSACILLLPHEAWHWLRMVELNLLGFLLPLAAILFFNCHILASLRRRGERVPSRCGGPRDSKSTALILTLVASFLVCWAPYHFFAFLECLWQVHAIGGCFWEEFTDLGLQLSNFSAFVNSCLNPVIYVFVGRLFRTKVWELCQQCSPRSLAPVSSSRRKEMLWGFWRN
The experiment in a line: cell-based. The conditions noted are these: Rb.A. pA2, apparent affinity as antagonist vs desArg9BK; antagonist applied 10 min before; Inactive = no detectable antagonistic effect at ≦ 10 μg/ml.
Source text: as §1, §2, §3

Data set [4] addresses T4, B2 receptor. The experiment in a line: cell-based.
Source text: as §1, §2, §3

Non-standard residues stand in square brackets, D forms with d. Residues, ends and D or L forms follow the SMILES beside them. Oic = O=C(O)[C@@H]1C[C@@H]2CCCC[C@@H]2N1; d2Nal = N[C@H](Cc1ccc2ccccc2c1)C(=O)O; Hyp = O=C(O)[C@@H]1C[C@@H](O)CN1; dTic = O=C(O)[C@H]1Cc2ccccc2CN1; 2Thi = N[C@@H](Cc1cccs1)C(=O)O

Take `CC[C@H](C)[C@H](NC(=O)[C@@H](Cc1ccc2ccccc2c1)NC(=O)[C@H](CO)NC(=O)[C@H](Cc1ccccc1)NC(=O)CNC(=O)[C@@H]1CCCN1C(=O)[C@@H]1CCCN1C(=O)[C@H](CCCN=C(N)N)NC(=O)[C@H](CCCCN)NC(C)=O)C(=O)O` [AcLys(D-βNal^7, Ile^8)desArg^9BK] (Ac-KRPPGFS[d2Nal]I-OH): the Kb at human B1 receptor was 3.24 nM.
In data set [1], `CC(C)C[C@H](NC(=O)[C@@H]1CCCN1C(=O)[C@H](CO)NC(=O)[C@H](Cc1ccccc1)NC(=O)CNC(=O)[C@@H]1CCCN1C(=O)[C@@H]1CCCN1C(=O)[C@H](CCCNC(=N)N)NC(=O)[C@@H](N)CCCCN)C(=O)O` [Compound 2, Lys(Leu^8)desArg^9BK, reference compound] showed a metabolised at 0.5 h, 42.1 μmol/L of 74 ± 2%. The “G.P.I. pA2” value on B2 receptor [2] is “Inactive”. Also, the “Rb.J.V. pA2” value at B2 receptor [3] was “Inactive”.
As to `N=C(N)NCCC[C@@H](N)C(=O)N[C@@H](CCCNC(=N)N)C(=O)N1CCC[C@H]1C(=O)N1C[C@H](O)C[C@H]1C(=O)NCC(=O)N[C@@H](Cc1ccccc1)C(=O)N[C@@H](CO)C(=O)N[C@H](Cc1ccccc1)C(=O)N[C@@H](Cc1ccccc1)C(=O)O` [Compound 6, D-Arg(Hyp^3, D-Phe^7)desArg^9BK] (H-[dR]RP[Hyp]GFS[dF]F-OH; N-terminus and C-terminus assumed), the Kb on B1 receptor was 363 nM; at B2 receptor [4], 2340 nM; at B2 receptor [2], above 8910 nM.
As for `CC(C)C[C@H](NC(=O)[C@@H](Cc1ccccc1)NC(=O)[C@H](CO)NC(=O)[C@H](Cc1ccccc1)NC(=O)CNC(=O)[C@@H]1C[C@@H](O)CN1C(=O)[C@@H]1CCCN1C(=O)[C@H](CCCNC(=N)N)NC(=O)[C@H](N)CCCNC(=N)N)C(=O)O` [Compound 7, D-Arg(Hyp^3, D-Phe^7, Leu^8)desArg^9BK] (H-[dR]RP[Hyp]GFS[dF]L-OH; N-terminus and C-terminus assumed), the Kb was 275 nM on B1 receptor and 2090 nM on B2 receptor [4]. The “G.P.I. pA2” value on B2 receptor [2] is on record as “Inactive”.
Turning to `CC(C)C[C@H](NC(=O)[C@H]1Cc2ccccc2CN1C(=O)[C@H](CO)NC(=O)[C@H](Cc1ccccc1)NC(=O)CNC(=O)[C@@H]1CCCN1C(=O)[C@@H]1CCCN1C(=O)[C@H](CCCNC(=N)N)NC(=O)[C@@H](N)CCCCN)C(=O)O` [Compound 10, Lys(D-Tic^7, Leu^8)desArg^9BK] (H-KRPPGFS[dTic]L-OH; N-terminus and C-terminus assumed), the Kb on B1 receptor is 316 nM; at B2 receptor [4] it was above 6310 nM.
In turn, `C[C@H](NC(=O)[C@H]1Cc2ccccc2CN1C(=O)[C@H](CO)NC(=O)[C@H](Cc1ccccc1)NC(=O)CNC(=O)[C@@H]1CCCN1C(=O)[C@@H]1CCCN1C(=O)[C@H](CCCNC(=N)N)NC(=O)[C@H](N)CCCNC(=N)N)C(=O)O` [Compound 15, D-Arg(D-Tic^7, Ala^8)desArg^9BK] (H-[dR]RPPGFS[dTic]A-OH; N-terminus and C-terminus assumed) had a metabolised at 0.5 h in data set [1] of 21 ± 1%. Further, the Kb at B1 receptor was above 9550 nM. Moreover, the “Rb.J.V. pA2” value at B2 receptor [3] is on record as “Inactive”.
In data set [1], `N=C(N)NCCC[C@@H](N)C(=O)N[C@@H](CCCNC(=N)N)C(=O)N1CCC[C@H]1C(=O)N1C[C@H](O)C[C@H]1C(=O)NCC(=O)N[C@@H](Cc1ccccc1)C(=O)N[C@@H](CO)C(=O)N1Cc2ccccc2C[C@@H]1C(=O)N[C@@H](Cc1ccccc1)C(=O)O` [Compound 16, D-Arg(Hyp^3, D-Tic^7)desArg^9BK] (H-[dR]RP[Hyp]GFS[dTic]F-OH; N-terminus and C-terminus assumed) displayed a metabolised at 0.5 h of 0%. The Kb on B1 receptor was 186 nM; on B2 receptor [4] it was above 2190 nM.
`N=C(N)NCCC[C@H](N)C(=O)N1CCC[C@H]1C(=O)N1C[C@H](O)C[C@H]1C(=O)NCC(=O)N[C@@H](Cc1cccs1)C(=O)N[C@@H](CO)C(=O)N1Cc2ccccc2C[C@@H]1C(=O)N1[C@H](C(=O)O)C[C@@H]2CCCC[C@@H]21` [Compound 32, (Hyp^3, Thi^5, D-Tic^7, Oic^8)desArg^9BK, reference compound] (H-RP[Hyp]G[2Thi]S[dTic][Oic]-OH; N-terminus and C-terminus assumed): in data set [1], the metabolised at 0.5 h is 0%. Moreover, the values for the Kb at B1 receptor, at B2 receptor [4] and at B2 receptor [2] were 479 nM, 447 nM and above 7590 nM, respectively.
